From the NIST ThermoML archive (doi:10.1021/je500380x)
Numbers after ± are expanded uncertainties.

Experiment: mn = molality of the nth substance listed, in mol/kg
Conditions: 100 kPa, Liquid; for viscosity: Falling or rolling sphere viscometry; for mass density: Vibrating tube method; for electrical conductivity: Alternating current cell with electrodes

CCC(=O)OCCN1CCNCC1 [2-(piperazin-1-yl)ethyl propionate] + CCO
Conditions | electrical conductivity [S/m] | mass density [kg/m3] | viscosity [mPa·s]
308.15 K, m1 = 0.05 | – | 779.32 ± 0.16 | –
308.15 K, m1 = 0.1 | – | 782.05 ± 0.15 | –
308.15 K, m1 = 0.1985 | – | 787.4 ± 0.15 | –
308.15 K, m1 = 0.3005 | – | 793.06 ± 0.15 | –
308.15 K, m1 = 0.4001 | – | 798.51 ± 0.15 | –
308.15 K, m1 = 0.5007 | – | 804.18 ± 0.15 | –
308.15 K, m1 = 0.5998 | – | 809.68 ± 0.15 | –
308.15 K, m1 = 0.7002 | – | 815.4 ± 0.15 | –
308.15 K, m1 = 0.8 | – | 821.15 ± 0.15 | –
308.15 K, m1 = 0.8957 | – | 826.9 ± 0.14 | –
308.15 K, m1 = 1 | – | 832.84 ± 0.14 | 1.841 ± 0.023
308.15 K, m1 = 1.198 | – | 844.51 ± 0.14 | 2.166 ± 0.027
308.15 K, m1 = 1.401 | – | 857.11 ± 0.14 | 2.605 ± 0.032
308.15 K, m1 = 1.602 | – | 869.1 ± 0.13 | 3.182 ± 0.039
308.15 K, m1 = 1.8 | – | 881.5 ± 0.13 | 3.932 ± 0.049
308.15 K, m1 = 2.001 | – | 894.88 ± 0.13 | 5.113 ± 0.063
308.15 K, m1 = 2.198 | – | 906.86 ± 0.13 | 6.285 ± 0.078
308.15 K, m1 = 2.397 | – | 920.09 ± 0.12 | 7.874 ± 0.097
308.15 K, m1 = 2.597 | – | 933.36 ± 0.12 | 11.18 ± 0.14
308.15 K, m1 = 2.796 | – | 946.62 ± 0.12 | 14.4 ± 0.18
308.15 K, m1 = 3.006 | – | 960.85 ± 0.12 | 20.29 ± 0.25
313.15 K, m1 = 0.05 | 0.0197 ± 0.0002 | 774.92 ± 0.16 | 0.856 ± 0.011
313.15 K, m1 = 0.1 | 0.0323 ± 0.0003 | 777.65 ± 0.16 | 0.893 ± 0.011
313.15 K, m1 = 0.1985 | 0.0513 ± 0.0005 | 783 ± 0.15 | 0.939 ± 0.012
313.15 K, m1 = 0.3005 | 0.0674 ± 0.0007 | 788.67 ± 0.15 | 1.003 ± 0.012
313.15 K, m1 = 0.4001 | 0.0806 ± 0.0008 | 794.13 ± 0.15 | 1.066 ± 0.013
313.15 K, m1 = 0.5007 | 0.0937 ± 0.0009 | 799.81 ± 0.15 | 1.145 ± 0.014
313.15 K, m1 = 0.5998 | 0.1048 ± 0.001 | 805.32 ± 0.15 | 1.225 ± 0.015
313.15 K, m1 = 0.7002 | 0.1144 ± 0.0011 | 811.06 ± 0.15 | 1.317 ± 0.016
313.15 K, m1 = 0.8 | 0.125 ± 0.0013 | 816.82 ± 0.15 | 1.435 ± 0.018
313.15 K, m1 = 0.8957 | 0.1335 ± 0.0013 | 822.6 ± 0.14 | 1.529 ± 0.019
313.15 K, m1 = 1 | 0.1433 ± 0.0014 | 828.55 ± 0.14 | 1.655 ± 0.02
313.15 K, m1 = 1.198 | 0.158 ± 0.0016 | 840.27 ± 0.14 | 1.94 ± 0.024
313.15 K, m1 = 1.401 | 0.1717 ± 0.0017 | 852.89 ± 0.14 | 2.319 ± 0.029
313.15 K, m1 = 1.602 | 0.1817 ± 0.0018 | 864.93 ± 0.14 | 2.817 ± 0.035
313.15 K, m1 = 1.8 | 0.189 ± 0.0019 | 877.36 ± 0.13 | 3.459 ± 0.043
313.15 K, m1 = 2.001 | 0.1932 ± 0.0019 | 890.78 ± 0.13 | 4.464 ± 0.055
313.15 K, m1 = 2.198 | 0.1946 ± 0.0019 | 902.73 ± 0.13 | 5.328 ± 0.066
313.15 K, m1 = 2.397 | 0.193 ± 0.0019 | 916.08 ± 0.12 | 6.774 ± 0.084
313.15 K, m1 = 2.597 | 0.1842 ± 0.0018 | 929.4 ± 0.12 | 9.473 ± 0.12
313.15 K, m1 = 2.796 | 0.177 ± 0.0018 | 942.71 ± 0.12 | 12.12 ± 0.15
313.15 K, m1 = 3.006 | 0.166 ± 0.0017 | 956.85 ± 0.12 | 16.88 ± 0.21
318.15 K, m1 = 0.05 | 0.0198 ± 0.0002 | 770.48 ± 0.16 | 0.787 ± 0.01
318.15 K, m1 = 0.1 | 0.0328 ± 0.0003 | 773.2 ± 0.16 | 0.82 ± 0.01
318.15 K, m1 = 0.1985 | 0.0525 ± 0.0005 | 778.55 ± 0.16 | 0.86 ± 0.011
318.15 K, m1 = 0.3005 | 0.0694 ± 0.0007 | 784.23 ± 0.15 | 0.916 ± 0.011
318.15 K, m1 = 0.4001 | 0.0833 ± 0.0008 | 789.7 ± 0.15 | 0.972 ± 0.012
318.15 K, m1 = 0.5007 | 0.0972 ± 0.001 | 795.39 ± 0.15 | 1.043 ± 0.013
318.15 K, m1 = 0.5998 | 0.109 ± 0.0011 | 800.91 ± 0.15 | 1.113 ± 0.014
318.15 K, m1 = 0.7002 | 0.119 ± 0.0012 | 806.67 ± 0.15 | 1.194 ± 0.015
318.15 K, m1 = 0.8 | 0.1309 ± 0.0013 | 812.45 ± 0.15 | 1.299 ± 0.016
318.15 K, m1 = 0.8957 | 0.14 ± 0.0014 | 818.24 ± 0.15 | 1.381 ± 0.017
318.15 K, m1 = 1 | 0.1514 ± 0.0015 | 824.21 ± 0.14 | 1.492 ± 0.018
318.15 K, m1 = 1.198 | 0.168 ± 0.0017 | 835.97 ± 0.14 | 1.741 ± 0.022
318.15 K, m1 = 1.401 | 0.1837 ± 0.0018 | 848.63 ± 0.14 | 2.071 ± 0.026
318.15 K, m1 = 1.602 | 0.195 ± 0.002 | 860.7 ± 0.14 | 2.503 ± 0.031
318.15 K, m1 = 1.8 | 0.204 ± 0.002 | 873.18 ± 0.13 | 3.057 ± 0.038
318.15 K, m1 = 2.001 | 0.211 ± 0.002 | 886.65 ± 0.13 | 3.912 ± 0.048
318.15 K, m1 = 2.198 | 0.214 ± 0.002 | 898.68 ± 0.13 | 4.647 ± 0.057
318.15 K, m1 = 2.397 | 0.212 ± 0.002 | 912.04 ± 0.13 | 5.859 ± 0.072
318.15 K, m1 = 2.597 | 0.207 ± 0.002 | 925.4 ± 0.12 | 8.129 ± 0.1
318.15 K, m1 = 2.796 | 0.199 ± 0.002 | 938.75 ± 0.12 | 10.27 ± 0.13
318.15 K, m1 = 3.006 | 0.188 ± 0.0019 | 953.35 ± 0.12 | 14.2 ± 0.18
323.15 K, m1 = 0.05 | 0.0198 ± 0.00021 | 765.98 ± 0.16 | 0.725 ± 0.009
323.15 K, m1 = 0.1 | 0.0331 ± 0.0003 | 768.7 ± 0.16 | 0.755 ± 0.009
323.15 K, m1 = 0.1985 | 0.0536 ± 0.0005 | 774.05 ± 0.16 | 0.79 ± 0.01
323.15 K, m1 = 0.3005 | 0.0711 ± 0.0007 | 779.73 ± 0.16 | 0.84 ± 0.01
323.15 K, m1 = 0.4001 | 0.0856 ± 0.0009 | 785.21 ± 0.15 | 0.889 ± 0.011
323.15 K, m1 = 0.5007 | 0.1004 ± 0.001 | 790.92 ± 0.15 | 0.951 ± 0.012
323.15 K, m1 = 0.5998 | 0.1131 ± 0.0011 | 796.46 ± 0.15 | 1.014 ± 0.013
323.15 K, m1 = 0.7002 | 0.1239 ± 0.0012 | 802.23 ± 0.15 | 1.086 ± 0.013
323.15 K, m1 = 0.8 | 0.137 ± 0.0014 | 808.02 ± 0.15 | 1.178 ± 0.015
323.15 K, m1 = 0.8957 | 0.146 ± 0.0015 | 813.82 ± 0.15 | 1.251 ± 0.015
323.15 K, m1 = 1 | 0.159 ± 0.0016 | 819.82 ± 0.15 | 1.348 ± 0.017
323.15 K, m1 = 1.198 | 0.178 ± 0.0018 | 831.61 ± 0.14 | 1.567 ± 0.019
323.15 K, m1 = 1.401 | 0.196 ± 0.002 | 844.32 ± 0.14 | 1.855 ± 0.023
323.15 K, m1 = 1.602 | 0.209 ± 0.002 | 856.43 ± 0.14 | 2.446 ± 0.03
323.15 K, m1 = 1.8 | 0.222 ± 0.002 | 868.95 ± 0.13 | 2.713 ± 0.034
323.15 K, m1 = 2.001 | 0.231 ± 0.002 | 882.65 ± 0.13 | 3.443 ± 0.043
323.15 K, m1 = 2.198 | 0.237 ± 0.002 | 894.55 ± 0.13 | 4.068 ± 0.05
323.15 K, m1 = 2.397 | 0.236 ± 0.002 | 907.95 ± 0.13 | 5.091 ± 0.063
323.15 K, m1 = 2.597 | 0.232 ± 0.002 | 921.36 ± 0.12 | 6.903 ± 0.085
323.15 K, m1 = 2.796 | 0.224 ± 0.002 | 934.75 ± 0.12 | 8.728 ± 0.11
323.15 K, m1 = 3.006 | 0.213 ± 0.002 | 949.41 ± 0.12 | 12.02 ± 0.15
